Assay results published in patent publication US20240197714A1, “METHODS FOR THE ADMINISTRATION OF CERTAIN VMAT2 INHIBITORS” (Neurocrine Biosciences, Inc., priority 2021, published 2024).
Like-named read-outs stand apart in the source and are kept apart here.

What was measured:
[1] = AUSTEDO label; likely similar in CYP2D6 poor metabolizers; cited from earlier work
[2] = Phase 1 open-label 2-sequence crossover study, single-dose pharmacokinetics of deutetrabenazine metabolites in healthy subjects; type: in vivo, human; conditions: for AUC / Cmax / half-life: both sexes, human, oral, plasma; for AUC / Cmax: healthy subjects, single dose deutetrabenazine 24 mg, % CV in parentheses; for half-life: 24 mg; for AUC (% of Total): share of total circulating DHTBZ exposure after single dose deutetrabenazine 24 mg
Experimental: A phase 1, open-label, 2-sequence crossover study was conducted to evaluate the HTBZ PK profile following administration of valbenazine (40 mg) or deutetrabenazine (24 mg) to a total of 18 healthy male and female subjects.
Subjects received a single dose of valbenazine 40 mg on Day 1 and a single dose of deutetrabenazine 24 mg on Day 16; or received a single dose of deutetrabenazine 24 mg on Day 1 and a single dose of valbenazine 40 mg on Day 16. Valbenazine 40 mg was administered as one 40 mg capsule and deutetrabenazine 24 mg was administered as two 12 mg tablets. Study drug was administered at approximately 0800 hours, approximately 30 minutes after the start of a standard breakfast.
PK parameters were determined using non-compartmental analysis with Phoenix WinNonlin 8.3 software. The in vitro pharmacology of the deuterated HTBZ metabolites was assessed using competitive radioligand binding assays.

[3] = metabolites of AUSTEDO, approximate, read-out: half-life (converted)

SMILES	increase of exposure when taking a strong CYP2D6 inhibitor [1]	AUC [2]	Cmax [2]	half-life [2, 3]	AUC (% of Total) [2]	half-life ([2]; after deutetrabenazine administration, read-out: mean half-life (converted))
COc1cc2c(cc1OC)[C@@H]1C[C@H](O)[C@@H](CC(C)C)CN1CC2 [α-DHTBZ]	approximately 3 fold	–	–	–	–	–
[2H]C([2H])([2H])Oc1cc2c(cc1OC([2H])([2H])[2H])[C@@H]1C[C@H](O)[C@@H](CC(C)C)CN1CC2 [[−]-α-DHTBZ, (−)-α-3-isobutyl-9,10-di(methoxy-d3)-1,3,4,6,7, 11b-hexahydro-2H-pyrido[2,1-a]isoquinolin-2-ol]	–	396 ng·h/mL	32.2 ng/mL	~12 h	66%	–
[2H]C([2H])([2H])Oc1cc2c(cc1OC([2H])([2H])[2H])[C@@H]1C[C@@H](O)[C@@H](CC(C)C)CN1CC2 [[−]-β-DHTBZ, (−)-β-3-isobutyl-9,10-di(methoxy-d3)-1,3,4,6,7,11b-hexahydro-2H-pyrido[2,1-a]isoquinolin-2-ol]	–	15.8 ng·h/mL	1.7 ng/mL	~8 h	3%	–
[2H]C([2H])([2H])Oc1cc2c(cc1OC([2H])([2H])[2H])[C@H]1C[C@H](O)[C@H](CC(C)C)CN1CC2 [[+]-β-DHTBZ, (+)-β-3-isobutyl-9,10-di(methoxy-d3)-1,3,4,6,7,11b-hexahydro-2H-pyrido[2,1-a]isoquinolin-2-ol]	–	176 ng·h/mL	20.4 ng/mL	~5 h	29%	7.7 h
[2H]C([2H])([2H])Oc1cc2c(cc1OC([2H])([2H])[2H])[C@H]1C[C@@H](O)[C@H](CC(C)C)CN1CC2 [[+]-α-DHTBZ]	–	11 ng·h/mL	1.2 ng/mL	~6 h	2%	–
